Experimental findings from ChEMBL document CHEMBL1201862, “PubChem BioAssay data set” (2004) are described below.

Structures can show the parent of a compound that is named as a salt.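 Cells were grown in 96-well plates and exposed to each compound for 48 hours at five concentrations; endpoints were interpolated linearly between bracketing concentrations, or set to the highest concentration if not reached. GI50 is the concentration that inhibits growth by half.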 The source made the active and inactive calls. No stated cut-off is given here; in the data, active = GI50 up to about 1.1 µM and inactive = higher.

Among the test systems are U-251; NCI-H226; RPMI-8226; SK-MEL-2; NCI/ADR-RES; HCC 2998; NCI-H460; HCT-116; TK-10; MOLT-4; SK-MEL-5; HOP-62; NCI-H522; SR; T47D; SW-620; RXF 393; HL-60; CAKI-1.
Holding throughout (assay): NCI anticancer screen, dose series, 48 h

Consider `Cc1cnc2sn(-c3ccc([N+](=O)[O-])cc3)c(=O)c2c1`, for which the GI50 was 30.1 µM (inactive) in the assay on U-251; > 100 µM (inactive) in the assay on NCI-H226; > 100 µM (inactive) in the assay on RPMI-8226; 45.7 µM (inactive) in the assay with SK-MEL-2; > 100 µM (inactive) with NCI/ADR-RES; > 100 µM (inactive) in the assay with HCC 2998. Besides, the GI50 in the assay on NCI-H460 is 60.4 µM (inactive); in the assay with HCT-116, > 100 µM (inactive); with TK-10, 75.2 µM (inactive); in the assay with MOLT-4 it was > 100 µM (inactive); with SK-MEL-5 it was > 100 µM (inactive); in the assay with HOP-62, 14.9 µM (inactive). The GI50 in the assay on NCI-H522 is 34.7 µM (inactive); in the assay with SR it was > 100 µM (inactive); in the assay with T47D, > 100 µM (inactive); with SW-620, > 100 µM (inactive).

Consider `CCOC(=O)CSc1nc(-c2ccc(Cl)cc2)c(C#N)c(=O)[nH]1`, for which the GI50 with U-251 was > 100 µM (inactive); in the assay with RXF 393 it was > 100 µM (inactive); in the assay with NCI-H226 it was 82.4 µM (inactive); with RPMI-8226, > 100 µM (inactive); in the assay on SK-MEL-2, > 100 µM (inactive); with HL-60, 22 µM (inactive). Further, the GI50 was > 100 µM (inactive) with NCI/ADR-RES; 76 µM (inactive) in the assay with HCC 2998; > 100 µM (inactive) with NCI-H460; 72.9 µM (inactive) in the assay on HCT-116; > 100 µM (inactive) with TK-10; > 100 µM (inactive) with MOLT-4. Also, the GI50 in the assay on SK-MEL-5 was > 100 µM (inactive); in the assay with CAKI-1, > 100 µM (inactive); in the assay with HOP-62, > 100 µM (inactive); with NCI-H522 it was 58.5 µM (inactive); in the assay with T47D, 85.1 µM (inactive); in the assay on SW-620, > 100 µM (inactive).

For `Cc1cc(CNC(=O)OCc2ccccc2)c(C)c2c1Oc1ccccc1O2`, the GI50 in the assay with U-251 was 18.8 µM (inactive); in the assay on RXF 393 it was 12.7 µM (inactive); with NCI-H226 it was 26.5 µM (inactive); in the assay with RPMI-8226 it was > 100 µM (inactive); in the assay with SK-MEL-2, < 0.01 µM (active); in the assay on NCI/ADR-RES, 19 µM (inactive). Also, the GI50 is > 100 µM (inactive) in the assay on HCC 2998; > 100 µM (inactive) in the assay on NCI-H460; 36.6 µM (inactive) in the assay on HCT-116; 41.8 µM (inactive) in the assay on TK-10; > 100 µM (inactive) with MOLT-4; > 100 µM (inactive) in the assay on SK-MEL-5. For the same molecule, the GI50 was 21.1 µM (inactive) with CAKI-1; 17.4 µM (inactive) in the assay on HOP-62; 13.9 µM (inactive) in the assay on NCI-H522; > 100 µM (inactive) with SR; 25.8 µM (inactive) in the assay with T47D; > 100 µM (inactive) in the assay with SW-620.

Regarding `[B].c1ccc([Si](OCCN2CC2)(c2ccccc2)c2ccccc2)cc1`, the GI50 with U-251 is 14 µM (inactive); in the assay on RXF 393, 4.46 µM (inactive); with NCI-H226, 16 µM (inactive); in the assay with RPMI-8226, 13.9 µM (inactive); with SK-MEL-2, 0.557 µM (active); in the assay with HL-60, 27.1 µM (inactive). The GI50 with NCI/ADR-RES was 14.1 µM (inactive); in the assay on HCC 2998, 13.6 µM (inactive); in the assay with NCI-H460 it was 12.5 µM (inactive); in the assay on HCT-116, 14.6 µM (inactive); in the assay on TK-10, 15.5 µM (inactive); in the assay with MOLT-4, 14.3 µM (inactive). Also, the GI50 in the assay with SK-MEL-5 was 15.8 µM (inactive); in the assay with CAKI-1, 16.3 µM (inactive); in the assay with HOP-62 it was 14.9 µM (inactive); with NCI-H522, 12.9 µM (inactive); in the assay with T47D it was 15.6 µM (inactive); with SW-620, 14.7 µM (inactive).

On to `O=C(OCC1CCCN2CCCCC12)c1ccncc1` (configuration not stated), for which the GI50 in the assay on U-251, with RXF 393, in the assay with NCI-H226, with RPMI-8226, in the assay with SK-MEL-2 and in the assay with NCI/ADR-RES was > 100 µM (inactive) each time. The GI50 with HCC 2998, in the assay with NCI-H460, in the assay on HCT-116, in the assay with TK-10, with MOLT-4 and in the assay on SK-MEL-5 was > 100 µM (inactive) in each case. Further, the GI50 in the assay on CAKI-1, with HOP-62, with SR, in the assay with T47D and in the assay on SW-620 was > 100 µM (inactive) each time.

For `CCNc1nc(N)c(C(=O)c2cccs2)s1`, the GI50 with U-251 is 22.5 µM (inactive); in the assay on RXF 393 it was 3.42 µM (inactive); in the assay on NCI-H226, 24.2 µM (inactive); in the assay on SK-MEL-2 it was 16.5 µM (inactive); in the assay on HL-60, 4.1 µM (inactive); in the assay with NCI/ADR-RES, 35 µM (inactive). In addition, the GI50 is 34.3 µM (inactive) with HCC 2998; 20.4 µM (inactive) with NCI-H460; 9.86 µM (inactive) in the assay with HCT-116; 48 µM (inactive) in the assay with TK-10; 17.6 µM (inactive) with MOLT-4; 18.1 µM (inactive) in the assay on SK-MEL-5. The GI50 in the assay with CAKI-1 was 8.69 µM (inactive); with HOP-62, 30.9 µM (inactive); in the assay on NCI-H522 it was 26.3 µM (inactive); in the assay with T47D it was 19.1 µM (inactive); in the assay with SW-620 it was 8.59 µM (inactive).

In the case of `CC1=CC2(O)OC3(CC2=C(C)C)C(C)CCC13` (configuration not stated), the GI50 in the assay on U-251, in the assay on RXF 393, in the assay on NCI-H226, in the assay with RPMI-8226, in the assay on SK-MEL-2 and in the assay with HL-60 was > 100 µM (inactive) in each case. Moreover, the GI50 in the assay with NCI/ADR-RES, with HCT-116, in the assay with TK-10, in the assay on MOLT-4, with SK-MEL-5 and with CAKI-1 was > 100 µM (inactive) in each case. The GI50 in the assay on HOP-62, in the assay with NCI-H522, in the assay on T47D and in the assay with SW-620 was > 100 µM (inactive) throughout.

With `Cc1nn(-c2ccccc2)c2nc3c(c(C)nn3-c3ccccc3)c(-c3ccccc3Br)c12`, the GI50 with U-251, in the assay with RXF 393, in the assay with NCI-H226, with RPMI-8226, in the assay on NCI/ADR-RES and in the assay with HCC 2998 was > 100 µM (inactive) each time. For the same molecule, the GI50 with NCI-H460, in the assay on HCT-116, in the assay on TK-10, in the assay on MOLT-4, in the assay with SK-MEL-5 and in the assay on CAKI-1 was > 100 µM (inactive) in each case. Besides, the GI50 with HOP-62, with NCI-H522, in the assay on SR, with T47D and in the assay on SW-620 was > 100 µM (inactive) throughout.

`NCCc1cc(O)c(O)cc1O` [OXIDOPAMINE HYDROCHLORIDE]: the GI50 with RXF 393 was 51.4 µM (inactive); in the assay on RPMI-8226 it was 3.19 µM (inactive); in the assay on SK-MEL-2, 43.5 µM (inactive); in the assay with NCI/ADR-RES, 34.4 µM (inactive); in the assay on HCC 2998 it was 56.2 µM (inactive); in the assay with NCI-H460, 29.2 µM (inactive). Further, the GI50 with HCT-116 is 18.7 µM (inactive); in the assay with TK-10 it was 62.5 µM (inactive); with MOLT-4, 21.8 µM (inactive); with SK-MEL-5, 18.5 µM (inactive); in the assay with CAKI-1 it was 18.6 µM (inactive); in the assay on HOP-62, 22.9 µM (inactive). The GI50 was 0.619 µM (active) with SR, 23.1 µM (inactive) in the assay on T47D and 21 µM (inactive) in the assay on SW-620.
